Where two headings read alike, the source gives them in different places.
Tests used:
[1] = test system: Tau phosphorylation at Ser396 (pSer396) in SH-SY5Y cells; assay: Tau phosphorylation at Ser396 (pSer396) cell assay, ELISA/western blot; format: cell-based, human; details: Homo sapiens
Experimental: SH-SY5Y cells (human neuroblastoma) were cultured in DMEM/F-12 medium supplemented with 15% FBS, Non-essential Amino Acid and Penicillin/Streptomycin. Two days before treatment, cells were seeded onto 96 well plates at 5×10^4 cells/well.
The above synthesized compounds were screened using the cell assay procedure to assess decrease Tau phosphorylation at Ser396 (pSer396) described below.
DMSO-resuspended compounds were dispensed to 8 wells as a serial titration from 10 μM to 4.6 nM final in medium and cells were exposed overnight (16-18 h) in a humidified incubator at 36.6c before harvest.
Cells were lysed with RIPA buffer complemented with phosphatase and protease inhibitors then lysates were spun down at 12,000 g for 10 min to remove any cellular debris. Lysates are then either directly tested for pSer396 by ELISA (Life Technology, Kit KHB7031) or loaded on NuPage Bis-Tris gels for western blot analysis. Colorimetric detection of ELISA signal is performed by Cytation3 plate reader (Biotek) and the chemiluminescence signal for HRP-linked antibodies used in western blotting is detected using a Carestream Image Station. The same pSer396 antibody is used for detection of pTau in both assays.
Blot densitometry for pSer396 and β-actin were analyzed using ImageJ (NIH) and pSer396 Tau ELISA signal was used to plot, draw the curve fitting, and determine each compounds EC50 in Prism (GraphPad).

[2] = test system: SW480 colon carcinoma cells; assay: Cell viability assay (CellTiter-Glo); format: cell-based, human; details: Homo sapiens; for EC50: 96 h, four days, CellTiter-Glo; for inhibition at 10 µM: read-out: percent inhibition at 10 μM (given for EC50 >10 μM), 10 μM
[3] = test system: pT212Tau in Dyrk1a- and MAPT-overexpressing HEK293T cells; assay: Tau phosphorylation at Threonine 212 (pT212Tau) sandwich ELISA in double transfected cells; details: Homo sapiens, HEK-293T, read-out: Thr212 EC50 (μM)
Experimental: HEK293T cells (transfectable human embryonic kidney cells) were cultured in DMEM medium supplemented with 10% FBS and 1% penicillin/streptomycin.
HEK293T cells were transiently transfected to overexpress Dyrk1a and microtubule-associated protein Tau (MAPT) genes. Specifically, Dyrk1a and MAPT expression vectors were obtained from OriGene (10 μg of each, catalog numbers SC314641 and RC216166, respectively). […] HEK293T cells were seeded at 1.0×10^7 cells in 10 mL per T-75 flask. […] One T-75 flask was designated as a no-vector negative control for pT212Tau signal.
After 4-6 hours of incubation in transfection reagents, transiently double transfected HEK293T cells were dissociated by treatment with trypsin EDTA and seeded at 1.0×10^5 cells in 100 μL per well in 96-well plates. No-vector negative controls were seeded in separate 96-well plates to avoid the risk of the negative control cells picking up the overexpression during incubation.
96-well flat-bottom plates were coated with 100 μL per well anti-HT7 capture antibody (ThermoFisher, MN1000) diluted 1:300 in 1×PBS at 4° C. overnight, with shaking at 500 rpm.
Cells were then lysed with 100 μL 1×RIPA buffer supplemented with phosphatase and protease inhibitors (each diluted to a final 1×). […] V-bottom plates were centrifuged at 4000 rpm, 4° C., for 15 minutes, and 100 μL of lysate supernatant from each well was directly tested for pT212Tau signal by sandwich ELISA.

[4] = test system: IL-6 in human peripheral blood mononuclear cells (huPBMCs); assay: IL-6 inhibition in LPS-stimulated human peripheral blood mononuclear cells (HTRF); format: cell-based; details: Homo sapiens, PBMC; for EC50: LPS 50 ng/mL, 22 hours, IL-6 HTRF; for inhibition at 10 µM: read-out: percent inhibition at 10 μM (given for EC50 >10 μM), LPS, IL-6, 10 μM
Procedure, shortened: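 Compound-treated huPBMCs (1×10e6 cells/mL, 1% FBS-RPMI) were stimulated after 2 h with LPS (50 ng/mL) for another 22 h at 37° C. An anti-IL-6 HTRF pair reported IL-6 as the 665/620 nm ratio; activity relative to DMSO, EC50 by 4-parameter Levenberg-Marquardt fitting, duplicates.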

[5] = SH-SY5Y cells, overnight (16-18 h), read-out: pSer396 Tau EC50

| Compound | EC50 [1, 5] | EC50 [2] | EC50 [3] | EC50 [4] | EC50 ([1]; SH-SY5Y, read-out: pSer396 Tau EC50 (μM)) | inhibition at 10 µM [2] | inhibition at 10 µM [4] |
| --- | --- | --- | --- | --- | --- | --- | --- |
| O=C(Nc1cc2cc(-c3cccnc3)ccc2cn1)C1CC1 [Compound 6, N-(6-(Pyridin-3-yl)isoquinolin-3-yl)cyclopropanecarboxamide] | 0.798 µM | 1600 nM | 0.01 µM | 1030 nM |  |  |  |
| O=C(CN1CCCC1)Nc1cc2cc(-c3cccnc3)ccc2cn1 [Compound 7, N-(6-(Pyridin-3-yl)isoquinolin-3-yl)-2-(pyrrolidin-1-yl)acetamide] | 2.2 µM | 3530 nM | 0.225 µM | 9260 nM |  |  |  |
| CN1CCC(C(=O)Nc2cc3cc(-c4cccnc4)ccc3cn2)CC1 [Compound 8, 1-Methyl-N-(6-(pyridin-3-yl)isoquinolin-3-yl)piperidine-4-carboxamide] | 0.795 µM | 3140 nM | 0.019 µM | 1970 nM |  |  |  |
| O=C(Nc1cc2cc(-c3cccnc3)ccc2cn1)C12CCN(CC1)CC2 [Compound 9, N-(6-(Pyridin-3-yl)isoquinolin-3-yl)quinuclidine-4-carboxamide] |  | > 10000 nM | 0.213 µM | > 10000 nM | > 10 µM | 26% | 3.9% |
| O=C(CN1CCOCC1)Nc1cc2cc(-c3cccnc3)ccc2cn1 [Compound 10, 2-Morpholino-N-(6-(pyridin-3-yl)isoquinolin-3-yl)acetamide] | 2.9 µM | > 10000 nM | 0.046 µM | > 10000 nM |  | 15.4% | 3.7% |
| CN1CCN(CC(=O)Nc2cc3cc(-c4cccnc4)ccc3cn2)CC1 [Compound 11, 2-(4-Methylpiperazin-1-yl)-N-(6-(pyridin-3-yl)isoquinolin-3-yl)acetamide] | 5.8 µM | > 10000 nM | 2.5 µM | > 10000 nM |  | 25.6% | 8.5% |
| CN1CCCN(CC(=O)Nc2cc3cc(-c4cccnc4)ccc3cn2)CC1 [Compound 12, 2-(4-Methyl-1,4-diazepan-1-yl)-N-(6-(pyridin-3-yl)isoquinolin-3-yl) acetamide] | 2.3 µM | > 10000 nM | 0.284 µM | 9860 nM |  | 39.3% |  |
| Cc1nccn1CC(=O)Nc1cc2cc(-c3cccnc3)ccc2cn1 [Compound 14, 2-(2-Methyl-1H-imidazol-1-yl)-N-(6-(pyridin-3-yl)isoquinolin-3-yl) acetamide] | 1.6 µM | > 10000 nM | 0.043 µM | 9030 nM |  | 47.6% |  |
| O=C(Cn1ccnc1)Nc1cc2cc(-c3cccnc3)ccc2cn1 [Compound 15, 2-(1H-Imidazol-1-yl)-N-(6-(pyridin-3-yl)isoquinolin-3-yl)acetamide] | 1.1 µM | 6440 nM | 0.2 µM | 4820 nM |  |  |  |
| CN1CCN(C[C@H]2CC[C@H](C(=O)Nc3cc4cc(-c5cncc(F)c5)ccc4cn3)CC2)CC1 [Compound 17, trans-N-(6-(5-Fluoropyridin-3-yl)isoquinolin-3-yl)-4-((4-methylpiperazin-1-yl)methyl)cyclohexane-1-carboxamide] | 4.6 µM | 3470 nM | 0.004 µM | 9350 nM |  |  |  |
| O=C(CN1CCCC1)Nc1cc2cc(-c3cncc(F)c3)ccc2cn1 [Compound 18, N-(6-(5-Fluoropyridin-3-yl)isoquinolin-3-yl)-2-(pyrrolidin-1-yl)acetamide] |  | > 10000 nM | 0.053 µM | > 10000 nM |  | 22.2% | 5.8% |
| CN1CCC(C(=O)Nc2cc3cc(-c4cncc(F)c4)ccc3cn2)CC1 [Compound 19, N-(6-(5-Fluoropyridin-3-yl)isoquinolin-3-yl)-1-methylpiperidine-4-carboxamide] | 9.4 µM | > 10000 nM | 0.205 µM | 9150 nM |  | 42.8% |  |
| CN1CCN(CC(=O)Nc2cc3cc(-c4cncc(F)c4)ccc3cn2)CC1 [Compound 20, N-(6-(5-Fluoropyridin-3-yl)isoquinolin-3-yl)-2-(4-methylpiperazin-1-yl) acetamide] |  | > 10000 nM | 0.252 µM | > 10000 nM |  | 37.2% | 3.6% |
| CN1CCN(CC(=O)Nc2cc3cc(-c4ccc(F)nc4)ccc3cn2)CC1 [Compound 21, N-(6-(6-Fluoropyridin-3-yl)isoquinolin-3-yl)-2-(4-methylpiperazin-1-yl) acetamide] | > 10 µM | > 10000 nM | 1.5 µM | > 10000 nM |  | 50% | 6.3% |
| CN1CCC(C(=O)Nc2cc3cc(-c4cncc(C#N)c4)ccc3cn2)CC1 [Compound 32, N-(6-(5-Cyanopyridin-3-yl)isoquinolin-3-yl)-1-methylpiperidine-4-carboxamide] |  | > 10000 nM | 0.161 µM | > 10000 nM |  | 8.8% | 5.1% |
| O=C(Nc1cc2cc(-c3cncc(NC4CCNCC4)n3)ccc2cn1)C1CCCCC1 [Compound 44, N-(6-(6-(piperidin-4-ylamino)pyrazin-2-yl)isoquinolin-3-yl) cyclohexanecarboxamide] |  | 813 nM | < 0.003 µM | 375 nM |  |  |  |
| O=C(Nc1cc2cc(-c3cnccn3)ccc2cn1)C1CCN(C2COC2)CC1 [Compound 78, 1-(Oxetan-3-yl)-N-(6-(pyrazin-2-yl)isoquinolin-3-yl)piperidine-4-carboxamide] | > 10 µM | > 10000 nM |  | > 10000 nM |  | 27.7% | 8.9% |
| CC(C)CN1CCCC(C(=O)Nc2cc3cc(-c4cnccn4)ccc3cn2)CC1 (stereo not drawn) [Compound 81, 1-Isobutyl-N-(6-(pyrazin-2-yl)isoquinolin-3-yl)azepane-4-carboxamide] |  | > 10000 nM | 0.37 µM | > 10000 nM |  | 21.3% | 1.6% |
| O=C(Nc1cc2cc(-c3cncc(NC4CCNCC4)n3)ccc2cn1)C1CCOCC1 [Compound 109, N-(6-(6-(Piperidin-4-ylamino)pyrazin-2-yl)isoquinolin-3-yl)tetrahydro-2H-pyran-4-carboxamide] |  | 1220 nM | 0.014 µM | 674 nM |  |  |  |
| CN1CCN(c2cc(C(=O)Nc3cc4cc(-c5cnc6ocnc6c5)ccc4cn3)ccn2)CC1 [Compound 132, 2-(4-Methylpiperazin-1-yl)-N-(6-(oxazolo[5,4-b]pyridin-6-yl)isoquinolin-3-yl)isonicotinamide] |  | 1510 nM | 6.2 µM | > 10000 nM |  |  | 8.5% |
| Cc1cc2ncc(-c3ccc4cnc(NC(=O)c5ccnc(N6CCN(C)CC6)c5)cc4c3)cc2[nH]1 [Compound 135, N-(6-(2-Methyl-1H-pyrrolo[3,2-b]pyridin-6-yl)isoquinolin-3-yl)-2-(4-methylpiperazin-1-yl)isonicotinamide] |  | 2370 nM | 3.2 µM | 2110 nM |  |  |  |
| O=C(CN1CCOCC1)Nc1cc2cc(-c3cccnc3)c(F)cc2cn1 [Compound 144, N-(7-Fluoro-6-(pyridin-3-yl)isoquinolin-3-yl)-2-morpholinoacetamide] |  | > 10000 nM | 0.051 µM | > 10000 nM |  | 22% | 9.4% |
| CN1CCN(CC(=O)Nc2cc3cc(-c4cccnc4)c(F)cc3cn2)CC1 [Compound 145, N-(7-Fluoro-6-(pyridin-3-yl)isoquinolin-3-yl)-2-(4-methylpiperazin-1-yl) acetamide] |  | > 10000 nM | 0.81 µM | > 10000 nM |  | 18.8% | 5.9% |
| COc1cncc(-c2ccc3cnc(NC(=O)CN4CCOCC4)cc3c2)c1 [Compound 147, N-(6-(5-Methoxypyridin-3-yl)isoquinolin-3-yl)-2-morpholinoacetamide] |  | > 10000 nM | 0.147 µM | > 10000 nM |  | 5.3% | 14.7% |
| [2H]C1([2H])OC([2H])([2H])C([2H])([2H])N(CC(=O)Nc2cc3cc(-c4cccnc4)ccc3cn2)C1([2H])[2H] [Compound 151, 2-(Morpholino-d8)-N-(6-(pyridin-3-yl)isoquinolin-3-yl)acetamide] |  | > 10000 nM | 0.009 µM | > 10000 nM |  | 24.6% | 6% |

Reference: US10653688B2, “6-(6-membered heteroaryl and aryl)isoquinolin-3-yl carboxamides and preparation and use thereof” (Samumed, LLC, priority 2017, dated 2020)
